Measured values taken from publication PMC5218480 (PLoS ONE, 2017).

Test system: MV-4-11 cells
Test: Gene expression microarray analysis (Affymetrix PrimeView) and GSEA
Assay type: cell-based, human
Set-up: RFU PODN (11730768_x_at) / Fold change /veh PODN (11730768_x_at) / RFU LINC00158 (11744669_a_at) / Fold change /veh LINC00158 (11744669_a_at) / RFU DUSP10 (11751237_a_at) / Fold change /veh DUSP10 (11751237_a_at) / RFU ID3 (11757404_x_at) / Fold change /veh ID3 (11757404_x_at) / RFU PLEKHG5 (11737974_s_at) / Fold change /veh PLEKHG5 (11737974_s_at) / RFU LRRC4B (11730491_at) / Fold change /veh LRRC4B (11730491_at) / RFU GIMAP4 (11747438_a_at) / Fold change /veh GIMAP4 (11747438_a_at) / RFU KRT8 (11758183_x_at) / Fold change /veh KRT8 (11758183_x_at) / RFU CNN1 (11734310_a_at) / Fold change /veh CNN1 (11734310_a_at) / RFU VPS37D (11726825_at) / Fold change /veh VPS37D (11726825_at) / RFU C10orf10 (11716522_x_at) / Fold change /veh C10orf10 (11716522_x_at) / RFU KIR2DL2 /// KIR2DL4 /// KIR2DL5A /// KIR2DL5B /// KIR2DS1 /// KIR2DS2 /// KIR2DS3 /// KIR2DS4 /// KIR3DL3 /// KIR3DL3 /// KIR3DS1 (11738374_at) / Fold change /veh KIR2DL2 /// KIR2DL4 /// KIR2DL5A /// KIR2DL5B /// KIR2DS1 /// KIR2DS2 /// KIR2DS3 /// KIR2DS4 /// KIR3DL3 /// KIR3DL3 /// KIR3DS1 (11738374_at) / RFU C1QL1 (11718748_at) / Fold change /veh C1QL1 (11718748_at) / RFU TMPRSS4 (11747572_a_at) / Fold change /veh TMPRSS4 (11747572_a_at) / RFU HAMP (11756126_x_at) / Fold change /veh HAMP (11756126_x_at) / RFU RNFT2 (11725882_a_at) / Fold change /veh RNFT2 (11725882_a_at) / RFU NR4A2 (11747474_a_at) / Fold change /veh NR4A2 (11747474_a_at) / RFU ABCC12 (11746883_a_at) / Fold change /veh ABCC12 (11746883_a_at) / RFU TMEM136 (11760407_x_at) / Fold change /veh TMEM136 (11760407_x_at) / RFU CLDN22 /// WWC2 (11732394_at) / Fold change /veh CLDN22 /// WWC2 (11732394_at) / RFU HLA-DPB1 (11760878_x_at) / Fold change /veh HLA-DPB1 (11760878_x_at) / RFU SPINT1 (11716480_a_at) / Fold change /veh SPINT1 (11716480_a_at) / RFU GAP43 (11754022_s_at) / Fold change /veh GAP43 (11754022_s_at) / RFU A4GNT (11735810_at) / Fold change /veh A4GNT (11735810_at) / RFU PRB3 (11715151_x_at) / Fold change /veh PRB3 (11715151_x_at) / RFU TUBB4B (11761932_at) / Fold change /veh TUBB4B (11761932_at) / RFU CAPN14 (11732068_a_at) / Fold change /veh CAPN14 (11732068_a_at) / RFU TMCC2 (11721928_a_at) / Fold change /veh TMCC2 (11721928_a_at) / RFU IRGQ (11745062_a_at) / Fold change /veh IRGQ (11745062_a_at) / RFU FAM174B (11720279_a_at) / Fold change /veh FAM174B (11720279_a_at) / RFU TMPRSS4 (11748680_a_at) / Fold change /veh TMPRSS4 (11748680_a_at) / RFU FAM212B (11763350_a_at) / Fold change /veh FAM212B (11763350_a_at) / RFU PLEKHG5 (11743358_a_at) / Fold change /veh PLEKHG5 (11743358_a_at) / RFU ZSCAN30 (11745921_a_at) / Fold change /veh ZSCAN30 (11745921_a_at) / RFU CMKLR1 (11741424_a_at) / Fold change /veh CMKLR1 (11741424_a_at) / RFU LOC101060620 /// MAPK8IP1 (11723275_at) / Fold change /veh LOC101060620 /// MAPK8IP1 (11723275_at) / RFU SPTSSB (11747773_x_at) / Fold change /veh SPTSSB (11747773_x_at) / RFU PRSS12 (11739890_at) / Fold change /veh PRSS12 (11739890_at) / RFU BIN1 (11741810_x_at) / Fold change /veh BIN1 (11741810_x_at) / RFU WNT11 (11732464_a_at) / Fold change /veh WNT11 (11732464_a_at) / RFU C10orf10 (11716521_a_at) / Fold change /veh C10orf10 (11716521_a_at) / RFU C5orf56 (11738089_at) / Fold change /veh C5orf56 (11738089_at) / RFU CYB561 (11721691_x_at) / Fold change /veh CYB561 (11721691_x_at) / RFU ANKRD19P (11752326_a_at) / Fold change /veh ANKRD19P (11752326_a_at) / RFU OR2T12 /// OR2T33 /// OR2T8 (11738714_s_at) / Fold change /veh OR2T12 /// OR2T33 /// OR2T8 (11738714_s_at) / RFU VCAN (11748164_a_at) / Fold change /veh VCAN (11748164_a_at) / RFU JSRP1 (11732532_at) / Fold change /veh JSRP1 (11732532_at) / RFU KRTAP10-11 (11738290_x_at) / Fold change /veh KRTAP10-11 (11738290_x_at) / RFU MYO3A (11730013_a_at) / Fold change /veh MYO3A (11730013_a_at) / RFU EBF3 (11725865_a_at) / Fold change /veh EBF3 (11725865_a_at) / RFU CAMK2N1 (11719241_x_at) / Fold change /veh CAMK2N1 (11719241_x_at) / RFU C5orf56 (11738088_a_at) / Fold change /veh C5orf56 (11738088_a_at) / RFU OLFML3 (11715873_a_at) / Fold change /veh OLFML3 (11715873_a_at) / RFU LOC100653217 /// NTM (11731650_a_at) / Fold change /veh LOC100653217 /// NTM (11731650_a_at) / RFU MAPK11 (11762145_a_at) / Fold change /veh MAPK11 (11762145_a_at) / RFU FIZ1 (11724087_x_at) / Fold change /veh FIZ1 (11724087_x_at) / RFU OASL (11726364_x_at) / Fold change /veh OASL (11726364_x_at) / RFU SOX15 (11748057_x_at) / Fold change /veh SOX15 (11748057_x_at) / RFU CD79A (11719716_a_at) / Fold change /veh CD79A (11719716_a_at) / RFU HIST1H1D (11736915_at) / Fold change /veh HIST1H1D (11736915_at) / RFU CASKIN2 (11723855_a_at) / Fold change /veh CASKIN2 (11723855_a_at) / RFU LOC730098 (11760151_x_at) / Fold change /veh LOC730098 (11760151_x_at) / RFU OR4N2 (11742367_at) / Fold change /veh OR4N2 (11742367_at) / RFU PRRT2 (11749266_a_at) / Fold change /veh PRRT2 (11749266_a_at) / RFU SNX32 (11753110_a_at) / Fold change /veh SNX32 (11753110_a_at) / RFU CDHR5 (11726645_a_at) / Fold change /veh CDHR5 (11726645_a_at) / RFU RCAN1 (11760418_a_at) / Fold change /veh RCAN1 (11760418_a_at) / RFU FAM167A (11723789_a_at) / Fold change /veh FAM167A (11723789_a_at) / RFU FAM26E (11764081_at) / Fold change /veh FAM26E (11764081_at) / RFU ISYNA1 (11749810_s_at) / Fold change /veh ISYNA1 (11749810_s_at) / RFU ACY1 (11761880_at) / Fold change /veh ACY1 (11761880_at) / RFU 11764098_at / Fold change /veh 11764098_at / RFU SAMD14 (11745864_x_at) / Fold change /veh SAMD14 (11745864_x_at) / RFU NPB (11741838_a_at) / Fold change /veh NPB (11741838_a_at) / RFU TMPRSS6 (11731388_a_at) / Fold change /veh TMPRSS6 (11731388_a_at) / RFU KRTAP10-2 (11738614_at) / Fold change /veh KRTAP10-2 (11738614_at) / RFU ARHGAP8 /// PRR5-ARHGAP8 (11727945_x_at) / Fold change /veh ARHGAP8 /// PRR5-ARHGAP8 (11727945_x_at) / RFU KRTAP5-7 /// NADSYN1 (11734609_at) / Fold change /veh KRTAP5-7 /// NADSYN1 (11734609_at) / RFU RASL12 (11751679_a_at) / Fold change /veh RASL12 (11751679_a_at) / RFU CDKN2B (11736163_a_at) / Fold change /veh CDKN2B (11736163_a_at) / RFU PRF1 (11729649_at) / Fold change /veh PRF1 (11729649_at) / RFU, ZNF638 /// ZNF638-IT1 / Fold change vs veh, ZNF638 /// ZNF638-IT1 / RFU, PANK3 / Fold change vs veh, PANK3 / RFU, SH3YL1 / Fold change vs veh, SH3YL1 / RFU, ZEB2 / Fold change vs veh, ZEB2 / RFU, NRIP1 / Fold change vs veh, NRIP1 / RFU, PTTG1IP / Fold change vs veh, PTTG1IP / RFU, CAPN2 / Fold change vs veh, CAPN2 / RFU, MED14 / Fold change vs veh, MED14 / RFU, SNORA58 / Fold change vs veh, SNORA58 / RFU, C1orf63 / Fold change vs veh, C1orf63 / RFU, LRRFIP1 / Fold change vs veh, LRRFIP1 / RFU, NDUFAF7 / Fold change vs veh, NDUFAF7 / RFU, SLC12A2 / Fold change vs veh, SLC12A2 / RFU, IBTK / Fold change vs veh, IBTK / RFU, ESF1 / Fold change vs veh, ESF1 / Fold change vs veh, TMEM50B / RFU, TAOK1 / Fold change vs veh, TAOK1 / RFU, ACBD3 / Fold change vs veh, ACBD3 / RFU, TMA16 / Fold change vs veh, TMA16 / RFU, RWDD3 / Fold change vs veh, RWDD3 / RFU, BCAT1 / Fold change vs veh, BCAT1 / RFU, EDEM3 / Fold change vs veh, EDEM3 / RFU, TMEM33 / Fold change vs veh, TMEM33 / RFU, WDR75 / Fold change vs veh, WDR75 / RFU, AHCTF1 / Fold change vs veh, AHCTF1 / RFU, TFRC / Fold change vs veh, TFRC / RFU, ZDHHC17 / Fold change vs veh, ZDHHC17 / RFU, NOM1 / Fold change vs veh, NOM1 / RFU, ARL8B / Fold change vs veh, ARL8B / RFU, ZBTB11 / Fold change vs veh, ZBTB11 / RFU, TAMM41 / Fold change vs veh, TAMM41 / RFU, KIAA1704 /// LOC100996395 / Fold change vs veh, KIAA1704 /// LOC100996395 / RFU, ING1 / Fold change vs veh, ING1 / RFU, TRMT61B / Fold change vs veh, TRMT61B / RFU, FUBP3 / Fold change vs veh, FUBP3 / RFU, TP53 / Fold change vs veh, TP53 / RFU, TNKS2 / Fold change vs veh, TNKS2 / RFU, ZFP14 / Fold change vs veh, ZFP14 / RFU, ACTR2 / Fold change vs veh, ACTR2 / RFU, PPP3R1 / Fold change vs veh, PPP3R1 / RFU, PIK3R1 / Fold change vs veh, PIK3R1 / RFU, HNRNPA1 / Fold change vs veh, HNRNPA1 / RFU, RNF170 / Fold change vs veh, RNF170 / RFU, ZNF28 / Fold change vs veh, ZNF28 / RFU, RNGTT / Fold change vs veh, RNGTT / RFU, OGT / Fold change vs veh, OGT / RFU, BRD1 / Fold change vs veh, BRD1 / RFU, MARS / Fold change vs veh, MARS / RFU, ZNF655 / Fold change vs veh, ZNF655 / RFU, FAHD1 / Fold change vs veh, FAHD1 / RFU, BDP1 / Fold change vs veh, BDP1 / RFU, LRRCC1 / Fold change vs veh, LRRCC1 / RFU, ARID1A / Fold change vs veh, ARID1A / RFU, ZNF146 / Fold change vs veh, ZNF146 / RFU, ZNF330 / Fold change vs veh, ZNF330 / RFU, GPN3 / Fold change vs veh, GPN3 / RFU, C9orf123 / Fold change vs veh, C9orf123 / RFU, N4BP2L2 / Fold change vs veh, N4BP2L2 / RFU, ARFIP1 / Fold change vs veh, ARFIP1 / RFU, FAM179B / Fold change vs veh, FAM179B / RFU, BCL10 / Fold change vs veh, BCL10 / RFU, UHRF1BP1L / Fold change vs veh, UHRF1BP1L / RFU, BET1 / Fold change vs veh, BET1 / RFU, CNOT2 / Fold change vs veh, CNOT2 / RFU, ZNF268 / Fold change vs veh, ZNF268 / Fold change vs veh, ZNF507 / RFU, DGCR2 / Fold change vs veh, DGCR2 / RFU, WDSUB1 / Fold change vs veh, WDSUB1 / Fold change vs veh, HSP90B1 /// MIR3652 / RFU, ADSS / Fold change vs veh, ADSS / RFU, GK / Fold change vs veh, GK / RFU, ZNF148 / Fold change vs veh, ZNF148 / RFU, TAF9 / Fold change vs veh, TAF9 / RFU, SLC1A5 / Fold change vs veh, SLC1A5 / RFU, SLMO2 / Fold change vs veh, SLMO2 / RFU, ABCC4 / Fold change vs veh, ABCC4 / RFU, LOC101060439 /// RAP1B / Fold change vs veh, LOC101060439 /// RAP1B / RFU, RFX7 / Fold change vs veh, RFX7 / RFU, GTPBP10 / Fold change vs veh, GTPBP10 / RFU, CNEP1R1 / Fold change vs veh, CNEP1R1 / RFU, BIVM-ERCC5 /// ERCC5 / Fold change vs veh, BIVM-ERCC5 /// ERCC5 / RFU, ILF3 / Fold change vs veh, ILF3 / RFU 11762660_at / Fold change /veh 11762660_at / RFU VCAN (11757783_s_at) / Fold change /veh VCAN (11757783_s_at) / RFU DDX43 (11728927_at) / Fold change /veh DDX43 (11728927_at) / RFU KRT8 (11758188_x_at) / Fold change /veh KRT8 (11758188_x_at) / RFU NKD1 (11759106_at) / Fold change /veh NKD1 (11759106_at) / RFU SRD5A1 (11742802_a_at) / Fold change /veh SRD5A1 (11742802_a_at) / RFU TPSAB1 /// TPSB2 (11721975_s_at) / Fold change /veh TPSAB1 /// TPSB2 (11721975_s_at) / RFU GSTM3 (11746129_a_at) / Fold change /veh GSTM3 (11746129_a_at) / RFU IL23R (11737362_x_at) / Fold change /veh IL23R (11737362_x_at) / RFU TMEM51 (11727254_a_at) / Fold change /veh TMEM51 (11727254_a_at) / RFU PIWIL2 (11732686_x_at) / Fold change /veh PIWIL2 (11732686_x_at) / RFU ORM1 (11744905_x_at) / Fold change /veh ORM1 (11744905_x_at) / RFU CCDC152 (11743942_at) / Fold change /veh CCDC152 (11743942_at) / RFU ECM1 (11717891_a_at) / Fold change /veh ECM1 (11717891_a_at) / RFU IL23R (11748794_a_at) / Fold change /veh IL23R (11748794_a_at) / RFU TNFAIP8L3 (11732012_x_at) / Fold change /veh TNFAIP8L3 (11732012_x_at) / RFU MBOAT4 (11741988_at) / Fold change /veh MBOAT4 (11741988_at) / RFU 11764193_at / Fold change /veh 11764193_at / RFU TMEM53 (11763286_at) / Fold change /veh TMEM53 (11763286_at) / RFU MAGEB2 (11727129_at) / Fold change /veh MAGEB2 (11727129_at) / RFU TMEM200A (11744735_a_at) / Fold change /veh TMEM200A (11744735_a_at) / RFU CCDC152 (11751479_a_at) / Fold change /veh CCDC152 (11751479_a_at) / RFU FAM211A (11726209_a_at) / Fold change /veh FAM211A (11726209_a_at) / RFU RGS16 (11746705_a_at) / Fold change /veh RGS16 (11746705_a_at) / RFU VCAN (11755009_s_at) / Fold change /veh VCAN (11755009_s_at) / RFU RHOB (11743442_s_at) / Fold change /veh RHOB (11743442_s_at) / RFU RGS16 (11720943_a_at) / Fold change /veh RGS16 (11720943_a_at) / RFU RGS16 (11720944_at) / Fold change /veh RGS16 (11720944_at) / RFU, VPS4B / Fold change vs veh, VPS4B / RFU, CREB1 / Fold change vs veh, CREB1 / RFU, DNAJC13 / Fold change vs veh, DNAJC13 / RFU, GNAQ / Fold change vs veh, GNAQ / RFU, CDK5R1 / Fold change vs veh, CDK5R1 / RFU, ZRANB3 / Fold change vs veh, ZRANB3 / RFU, CUL4A / Fold change vs veh, CUL4A / RFU, CCNY / Fold change vs veh, CCNY / RFU, UFL1 / Fold change vs veh, UFL1 / RFU, COG3 / Fold change vs veh, COG3 / RFU, DIAPH2 / Fold change vs veh, DIAPH2 / RFU, SKA2 / Fold change vs veh, SKA2 / RFU, AFF3 / Fold change vs veh, AFF3 / RFU, LMF1 / Fold change vs veh, LMF1 / RFU, IPO11 / Fold change vs veh, IPO11 / RFU, DFFB / Fold change vs veh, DFFB / RFU, FOXP1 / Fold change vs veh, FOXP1 / RFU, CARD8 / Fold change vs veh, CARD8 / RFU, STRN3 / Fold change vs veh, STRN3 / RFU, ADK / Fold change vs veh, ADK / RFU, RASSF2 / Fold change vs veh, RASSF2 / RFU, WIPF1 / Fold change vs veh, WIPF1 / RFU, LARP1B / Fold change vs veh, LARP1B / RFU, RASA1 / Fold change vs veh, RASA1 / RFU, RB1 / Fold change vs veh, RB1 / RFU, PPFIA1 / Fold change vs veh, PPFIA1 / RFU, MAT2A / Fold change vs veh, MAT2A / RFU, CCT5 / Fold change vs veh, CCT5 / RFU, WDR92 / Fold change vs veh, WDR92 / RFU, CUX1 / Fold change vs veh, CUX1 / RFU, TTC7A / Fold change vs veh, TTC7A / RFU, TMEM135 / Fold change vs veh, TMEM135 / RFU, DEPTOR / Fold change vs veh, DEPTOR / RFU, CPM / Fold change vs veh, CPM / RFU, DNAJB6 / Fold change vs veh, DNAJB6 / RFU, CACNA2D3 / Fold change vs veh, CACNA2D3 / RFU, DTX4 / Fold change vs veh, DTX4 / RFU, TFCP2 / Fold change vs veh, TFCP2 / RFU, GMCL1 /// GMCL1P1 / Fold change vs veh, GMCL1 /// GMCL1P1 / RFU, AEBP2 / Fold change vs veh, AEBP2 / RFU, SNHG1 /// SNORD22 /// SNORD25 /// SNORD26 /// SNORD27 /// SNORD28 /// SNORD29 /// SNORD31 / Fold change vs veh, SNHG1 /// SNORD22 /// SNORD25 /// SNORD26 /// SNORD27 /// SNORD28 /// SNORD29 /// SNORD31 / Fold change (Aza/veh), C12orf56 (ProbeSet 11735607_a_at) / Fold change (ACY-1035/veh), C12orf56 (ProbeSet 11735607_a_at) / Fold change (Aza/veh), FGFR1OP (ProbeSet 11751329_s_at) / Fold change (ACY-1035/veh), FGFR1OP (ProbeSet 11751329_s_at) / Fold change (Aza/veh), VPS36 (ProbeSet 11739960_a_at) / Fold change (ACY-1035/veh), VPS36 (ProbeSet 11739960_a_at) / RFU SYPL1 (11715823_x_at) / Fold change /veh SYPL1 (11715823_x_at) / RFU IGFBP7 (11715501_s_at) / Fold change /veh IGFBP7 (11715501_s_at) / RFU REEP3 (11722064_at) / Fold change /veh REEP3 (11722064_at) / RFU IGLL1 (11728026_x_at) / Fold change /veh IGLL1 (11728026_x_at): dose or concentration left out as unconfirmed
Settings: ProbeSet 11758919_x_at; LIST D

Nc1ccc(-c2cccs2)cc1NC(=O)c1ccc2c(c1)cc(C1CC1)n2CCN1CCOCC1 [ACY-1035]
Fold change vs veh, TFCP2: 0.94
